Reference: article PMC3382171 (PLoS ONE, 2012)

What was measured:
Assay in all cases: biochemical
[1] = molecular target: JAK2 (Homo sapiens, UniProt O60674); conditions: read-out: Upstate KSS % inhibition at 1uM
Protocol: (§1) In these selectivity assays the concentration of ATP was set to the Km value of ATP for each kinase tested to allow for a relative potency comparison between the various kinases. The compounds were tested at 1 µM final concentration. […] (A) Kinase selectivity screen (KSS) performed at Upstate Biotechnology. […] (B) KSS performed at University of Dundee (Division of Signal Transduction Therapy). […] (PDF) Click here for additional data file.

[2] = molecular target: TSSK2 (Homo sapiens, UniProt Q96PF2); conditions: read-out: Upstate KSS % inhibition at 1uM
TSSK2, sequence (Q96PF2 whole entry): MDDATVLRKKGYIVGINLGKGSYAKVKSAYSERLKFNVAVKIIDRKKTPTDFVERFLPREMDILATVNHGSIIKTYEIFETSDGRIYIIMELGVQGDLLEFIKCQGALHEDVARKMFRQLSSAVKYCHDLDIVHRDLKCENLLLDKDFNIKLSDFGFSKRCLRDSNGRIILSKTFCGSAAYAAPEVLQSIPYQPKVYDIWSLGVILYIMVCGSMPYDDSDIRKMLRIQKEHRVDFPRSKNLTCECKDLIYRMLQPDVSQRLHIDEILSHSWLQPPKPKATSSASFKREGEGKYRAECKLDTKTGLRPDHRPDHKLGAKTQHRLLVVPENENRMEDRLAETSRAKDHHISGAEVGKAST
Protocol: as §1

[3] = molecular target: T1, Pyk2 (Homo sapiens, UniProt Q14289); conditions: read-out: Upstate KSS % inhibition at 1uM
T1 construct: gene PTK2B
Protocol: as §1

[4] = molecular target: T2, Tie2 (Homo sapiens, UniProt Q02763); conditions: read-out: Upstate KSS % inhibition at 1uM
T2 construct: gene TEK
Protocol: as §1

[5] = molecular target: T3, PhKgamma (Homo sapiens, UniProt Q16816); conditions: read-out: Upstate KSS % inhibition at 1uM
T3 construct: gene PHKG1
Protocol: as §1

[6] = molecular target: RET (Homo sapiens, UniProt P07949); conditions: read-out: Upstate KSS % inhibition at 1uM
Protocol: as §1

[7] = molecular target: T4, PKD2 (Homo sapiens, UniProt Q9BZL6); conditions: read-out: Upstate KSS % inhibition at 1uM
T4 construct: gene PRKD2
Protocol: as §1

[8] = molecular target: EGFR (Homo sapiens, UniProt P00533); conditions: read-out: Upstate KSS % inhibition at 1uM
Protocol: as §1

[9] = molecular target: T5, MRCKalpha (Homo sapiens, UniProt Q5VT25); conditions: read-out: Upstate KSS % inhibition at 1uM
T5 construct: gene CDC42BPA
T5 sequence (Q5VT25 whole entry): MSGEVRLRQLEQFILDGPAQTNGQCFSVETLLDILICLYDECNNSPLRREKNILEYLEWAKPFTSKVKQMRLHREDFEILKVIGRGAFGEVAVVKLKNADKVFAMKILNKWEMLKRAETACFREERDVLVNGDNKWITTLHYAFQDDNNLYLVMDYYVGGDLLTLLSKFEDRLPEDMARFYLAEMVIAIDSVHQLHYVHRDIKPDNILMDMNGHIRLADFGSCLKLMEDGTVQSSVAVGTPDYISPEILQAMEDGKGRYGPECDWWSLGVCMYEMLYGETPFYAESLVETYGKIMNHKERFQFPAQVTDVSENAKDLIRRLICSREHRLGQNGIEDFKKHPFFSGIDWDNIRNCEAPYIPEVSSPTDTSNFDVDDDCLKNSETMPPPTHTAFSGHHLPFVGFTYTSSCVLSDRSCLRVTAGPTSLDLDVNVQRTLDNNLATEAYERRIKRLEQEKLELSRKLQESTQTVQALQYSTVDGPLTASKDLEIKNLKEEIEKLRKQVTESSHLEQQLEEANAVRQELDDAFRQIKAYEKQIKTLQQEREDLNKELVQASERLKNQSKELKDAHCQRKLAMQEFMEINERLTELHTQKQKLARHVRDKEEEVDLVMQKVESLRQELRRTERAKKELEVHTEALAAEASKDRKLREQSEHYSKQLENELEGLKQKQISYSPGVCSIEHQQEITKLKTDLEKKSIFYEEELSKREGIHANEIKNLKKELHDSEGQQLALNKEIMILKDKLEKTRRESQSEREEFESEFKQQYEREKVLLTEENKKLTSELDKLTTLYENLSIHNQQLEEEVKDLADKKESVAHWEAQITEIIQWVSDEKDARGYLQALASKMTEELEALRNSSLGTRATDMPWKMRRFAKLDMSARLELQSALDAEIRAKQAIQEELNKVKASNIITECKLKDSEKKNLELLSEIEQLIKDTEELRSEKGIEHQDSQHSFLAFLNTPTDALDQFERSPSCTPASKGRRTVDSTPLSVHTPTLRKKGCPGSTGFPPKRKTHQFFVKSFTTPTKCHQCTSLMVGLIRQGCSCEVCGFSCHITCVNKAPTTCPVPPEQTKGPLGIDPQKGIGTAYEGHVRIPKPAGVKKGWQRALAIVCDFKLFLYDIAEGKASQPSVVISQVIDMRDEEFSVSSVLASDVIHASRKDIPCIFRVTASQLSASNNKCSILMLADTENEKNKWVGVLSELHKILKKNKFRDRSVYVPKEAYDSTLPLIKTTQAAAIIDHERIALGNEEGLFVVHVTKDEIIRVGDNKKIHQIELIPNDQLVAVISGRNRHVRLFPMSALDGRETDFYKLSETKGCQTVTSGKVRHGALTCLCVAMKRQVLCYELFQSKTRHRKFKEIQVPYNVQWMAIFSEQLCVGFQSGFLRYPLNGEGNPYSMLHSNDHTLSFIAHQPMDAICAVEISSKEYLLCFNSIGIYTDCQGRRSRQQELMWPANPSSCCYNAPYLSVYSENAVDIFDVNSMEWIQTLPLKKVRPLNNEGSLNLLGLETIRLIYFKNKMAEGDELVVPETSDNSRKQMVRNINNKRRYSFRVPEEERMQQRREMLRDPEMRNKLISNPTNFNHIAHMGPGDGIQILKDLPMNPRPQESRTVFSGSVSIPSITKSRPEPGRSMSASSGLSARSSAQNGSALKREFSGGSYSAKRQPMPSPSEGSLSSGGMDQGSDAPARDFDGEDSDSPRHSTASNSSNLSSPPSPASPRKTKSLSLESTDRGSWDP
Protocol: as §1

[10] = molecular target: T6, IKKalpha (Homo sapiens, UniProt O15111); conditions: read-out: Upstate KSS % inhibition at 1uM
T6 construct: gene CHUK
T6 sequence (O15111 whole entry): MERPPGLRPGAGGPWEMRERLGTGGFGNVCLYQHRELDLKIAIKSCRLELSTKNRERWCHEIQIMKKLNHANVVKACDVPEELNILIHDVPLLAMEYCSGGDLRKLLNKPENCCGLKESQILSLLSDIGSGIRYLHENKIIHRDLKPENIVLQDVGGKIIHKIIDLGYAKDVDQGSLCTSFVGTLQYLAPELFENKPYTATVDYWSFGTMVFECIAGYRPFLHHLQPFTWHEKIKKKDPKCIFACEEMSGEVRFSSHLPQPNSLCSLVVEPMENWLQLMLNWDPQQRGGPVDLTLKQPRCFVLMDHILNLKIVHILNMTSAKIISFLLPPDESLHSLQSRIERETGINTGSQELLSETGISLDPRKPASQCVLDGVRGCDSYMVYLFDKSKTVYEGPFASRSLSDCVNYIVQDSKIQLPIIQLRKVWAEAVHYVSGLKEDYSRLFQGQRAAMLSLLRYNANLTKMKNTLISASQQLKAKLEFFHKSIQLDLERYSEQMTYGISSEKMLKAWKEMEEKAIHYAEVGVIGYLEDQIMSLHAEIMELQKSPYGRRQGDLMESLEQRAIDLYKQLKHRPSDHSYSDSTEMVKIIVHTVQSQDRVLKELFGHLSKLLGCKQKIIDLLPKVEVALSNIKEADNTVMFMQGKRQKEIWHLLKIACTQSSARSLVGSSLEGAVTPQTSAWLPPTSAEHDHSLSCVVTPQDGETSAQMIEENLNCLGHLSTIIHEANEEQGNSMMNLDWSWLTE
Protocol: as §1

[11] = molecular target: CSK (Homo sapiens, UniProt P41240); conditions: read-out: Upstate KSS % inhibition at 1uM
Protocol: as §1

[12] = molecular target: T7, SAPK2b (Homo sapiens, UniProt Q15759); conditions: read-out: Upstate KSS % inhibition at 1uM
T7 construct: gene MAPK11
Protocol: as §1

[13] = molecular target: T8, AURB (Homo sapiens, UniProt Q96GD4); set-up: University of Dundee kinase panel, percent inhibition of phosphorylation at 1 uM RAFi, ATP at Km; conditions: read-out: Dundee KSS %inh at 1 uM
T8 construct: gene AURKB
Protocol: (§2) The METi and RAFi were screened against kinase panels (SelectScreen, Invitrogen; University of Dundee, Division of Signal Transduction Therapy, UK; Upstate Biotechnology/Millipore, Billerica, MA). In these selectivity assays the concentration of ATP was set to the Km value of ATP for each kinase tested to allow for a relative potency comparison between the various kinases. The compounds were tested at 1 µM final concentration. […] Supplementary file pone.0039653.s002.pdf: Figure S2 Kinase Selectivity Screen of RAFi. (A) Kinase selectivity screen (KSS) performed at University of Dundee (Division of Signal Transduction Therapy). Values in % inhibition of phosphorylation given 1 µM of RAFi compared to control. (B) KSS performed at Invitrogen (Selectscreen Service) compared to control. Values in % inhibition of phosphorylation given 1 µM of RAFi. (C) Cell based dose response kinase inhibition of indicated kinases by RAFi. (PDF) Click here for additional data file.

[14] = molecular target: T9, JNK2 (Homo sapiens, UniProt P45984); set-up: University of Dundee kinase panel, percent inhibition of phosphorylation at 1 uM RAFi, ATP at Km; conditions: read-out: Dundee KSS %inh at 1 uM
T9 construct: gene MAPK9
T9 sequence (P45984 whole entry): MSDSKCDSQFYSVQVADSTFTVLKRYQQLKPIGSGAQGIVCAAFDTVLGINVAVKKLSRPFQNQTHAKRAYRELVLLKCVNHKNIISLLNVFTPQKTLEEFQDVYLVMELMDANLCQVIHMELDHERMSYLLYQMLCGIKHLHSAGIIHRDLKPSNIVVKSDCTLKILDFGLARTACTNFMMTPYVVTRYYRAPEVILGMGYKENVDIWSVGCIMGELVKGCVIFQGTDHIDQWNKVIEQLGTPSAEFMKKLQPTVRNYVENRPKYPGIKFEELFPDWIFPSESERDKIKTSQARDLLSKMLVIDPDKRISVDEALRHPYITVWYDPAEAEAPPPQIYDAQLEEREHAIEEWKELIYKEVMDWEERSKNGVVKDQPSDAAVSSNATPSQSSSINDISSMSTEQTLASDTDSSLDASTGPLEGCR
Protocol: as §2

[15] = molecular target: T10, MNK2 (Homo sapiens, UniProt Q9HBH9); set-up: University of Dundee kinase panel, percent inhibition of phosphorylation at 1 uM RAFi, ATP at Km; conditions: read-out: Dundee KSS %inh at 1 uM
T10 construct: gene MKNK2
Protocol: as §2

[16] = molecular target: T11, DYRK2 (Homo sapiens, UniProt Q92630); set-up: University of Dundee kinase panel, percent inhibition of phosphorylation at 1 uM RAFi, ATP at Km; conditions: read-out: Dundee KSS %inh at 1 uM
T11 sequence (Q92630 1-601): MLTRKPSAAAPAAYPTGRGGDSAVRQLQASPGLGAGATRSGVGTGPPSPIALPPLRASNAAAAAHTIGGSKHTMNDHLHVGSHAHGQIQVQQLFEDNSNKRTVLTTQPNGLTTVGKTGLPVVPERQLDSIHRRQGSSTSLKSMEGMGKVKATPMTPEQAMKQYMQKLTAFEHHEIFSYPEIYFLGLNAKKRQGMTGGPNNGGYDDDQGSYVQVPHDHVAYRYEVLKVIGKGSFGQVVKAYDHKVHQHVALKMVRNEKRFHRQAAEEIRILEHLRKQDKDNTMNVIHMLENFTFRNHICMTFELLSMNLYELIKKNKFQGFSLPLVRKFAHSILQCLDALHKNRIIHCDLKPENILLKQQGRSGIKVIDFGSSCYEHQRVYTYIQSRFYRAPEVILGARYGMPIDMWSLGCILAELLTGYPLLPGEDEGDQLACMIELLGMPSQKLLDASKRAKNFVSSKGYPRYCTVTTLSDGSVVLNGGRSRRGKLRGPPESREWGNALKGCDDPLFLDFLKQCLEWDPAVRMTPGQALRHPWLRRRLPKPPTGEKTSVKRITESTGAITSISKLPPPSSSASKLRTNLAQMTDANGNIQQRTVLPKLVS
Protocol: as §2

[17] = molecular target: AKT2 (Homo sapiens, UniProt P31751); set-up: University of Dundee kinase panel, percent inhibition of phosphorylation at 1 uM RAFi, ATP at Km; conditions: read-out: Dundee KSS %inh at 1 uM
Protocol: as §2

[18] = molecular target: PLK1 (Homo sapiens, UniProt P53350); set-up: University of Dundee kinase panel, percent inhibition of phosphorylation at 1 uM RAFi, ATP at Km; conditions: read-out: Dundee KSS %inh at 1 uM
PLK1, sequence (P53350 whole entry): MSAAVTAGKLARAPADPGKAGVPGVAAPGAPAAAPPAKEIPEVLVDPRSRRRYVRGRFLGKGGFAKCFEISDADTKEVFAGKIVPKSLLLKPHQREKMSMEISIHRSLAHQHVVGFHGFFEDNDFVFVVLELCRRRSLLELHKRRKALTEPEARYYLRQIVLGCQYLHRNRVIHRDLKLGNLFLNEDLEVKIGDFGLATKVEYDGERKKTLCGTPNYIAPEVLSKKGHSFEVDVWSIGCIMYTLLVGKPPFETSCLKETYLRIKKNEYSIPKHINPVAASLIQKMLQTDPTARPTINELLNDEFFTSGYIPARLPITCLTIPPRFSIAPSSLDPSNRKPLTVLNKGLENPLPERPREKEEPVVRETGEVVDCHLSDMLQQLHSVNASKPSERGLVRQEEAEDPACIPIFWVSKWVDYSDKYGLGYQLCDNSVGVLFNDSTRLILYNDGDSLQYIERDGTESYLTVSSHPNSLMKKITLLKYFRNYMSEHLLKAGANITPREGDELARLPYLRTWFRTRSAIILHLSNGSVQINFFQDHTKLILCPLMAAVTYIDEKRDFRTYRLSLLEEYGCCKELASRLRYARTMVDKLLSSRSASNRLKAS
Protocol: as §2

[19] = molecular target: T12, rat AMPKa2 (Rattus norvegicus, UniProt Q09137); set-up: University of Dundee kinase panel, percent inhibition of phosphorylation at 1 uM RAFi, ATP at Km; conditions: read-out: Dundee KSS %inh at 1 uM
T12 construct: gene Prkaa2
Protocol: as §2

JAK2, sequence (O60674 whole entry): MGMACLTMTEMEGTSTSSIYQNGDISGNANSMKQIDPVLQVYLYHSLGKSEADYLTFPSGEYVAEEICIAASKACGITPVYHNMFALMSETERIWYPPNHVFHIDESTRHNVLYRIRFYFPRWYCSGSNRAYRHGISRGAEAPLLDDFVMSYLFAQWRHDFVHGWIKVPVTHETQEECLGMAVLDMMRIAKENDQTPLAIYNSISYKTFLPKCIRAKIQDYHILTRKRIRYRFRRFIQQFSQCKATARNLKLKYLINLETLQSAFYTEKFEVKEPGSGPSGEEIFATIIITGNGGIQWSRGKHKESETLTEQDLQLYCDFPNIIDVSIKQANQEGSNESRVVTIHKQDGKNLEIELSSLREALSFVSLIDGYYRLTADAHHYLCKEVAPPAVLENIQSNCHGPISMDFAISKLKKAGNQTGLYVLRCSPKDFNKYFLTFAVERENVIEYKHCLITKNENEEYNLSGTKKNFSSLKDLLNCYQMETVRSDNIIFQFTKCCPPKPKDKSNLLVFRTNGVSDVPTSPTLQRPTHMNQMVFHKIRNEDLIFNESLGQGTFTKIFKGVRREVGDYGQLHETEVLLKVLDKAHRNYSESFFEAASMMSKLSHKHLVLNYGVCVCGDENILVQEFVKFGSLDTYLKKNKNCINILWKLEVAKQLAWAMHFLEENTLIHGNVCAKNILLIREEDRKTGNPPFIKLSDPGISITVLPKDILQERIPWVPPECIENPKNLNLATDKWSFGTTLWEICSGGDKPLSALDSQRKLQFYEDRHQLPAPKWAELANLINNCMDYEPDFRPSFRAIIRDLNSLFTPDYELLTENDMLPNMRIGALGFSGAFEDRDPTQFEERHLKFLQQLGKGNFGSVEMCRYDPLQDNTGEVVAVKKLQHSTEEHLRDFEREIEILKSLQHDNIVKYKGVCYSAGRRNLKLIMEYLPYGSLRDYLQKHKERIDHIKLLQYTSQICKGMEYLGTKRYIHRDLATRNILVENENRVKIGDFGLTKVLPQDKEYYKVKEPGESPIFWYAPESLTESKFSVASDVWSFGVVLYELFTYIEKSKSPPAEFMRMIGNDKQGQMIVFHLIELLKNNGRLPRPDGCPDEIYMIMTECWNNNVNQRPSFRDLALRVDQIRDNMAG

inhibition at 1 µM [1] | inhibition at 1 µM [2] | inhibition at 1 µM [3] | inhibition at 1 µM [4] | inhibition at 1 µM [5] | inhibition at 1 µM [6] | inhibition at 1 µM [7] | inhibition at 1 µM [8] | inhibition at 1 µM [9] | inhibition at 1 µM [10] | inhibition at 1 µM [11] | inhibition at 1 µM [12] | inhibition at 1 µM [13] | inhibition at 1 µM [14] | inhibition at 1 µM [15] | inhibition at 1 µM [16] | inhibition at 1 µM [17] | inhibition at 1 µM [18] | inhibition at 1 µM [19] | SMILES
-6% | 4% | -17% | -32% | -3% | -7% | 5% | 0% | 5% | -2% | -23% | 1% |  |  |  |  |  |  |  | OCCn1cc(-c2cnc3nnn(Cc4ccc5ncccc5c4)c3n2)cn1 [METi, PF-04217903]
 |  |  |  |  |  |  |  |  |  |  |  | 16% | 95% | 12% | 23% | 28% | 47% | 15% | N#CCCNc1nccc(-c2cn(CC(F)F)nc2-c2cnc3[nH]ccc3c2)n1 [RAFi, PF-04880594]
